# Data taken from ChEMBL document CHEMBL1201862, “PubChem BioAssay data set” (2004).
# Calls of active or inactive are those of the source.
# Columns and labels:
# [1] = molecular target: T1, Ubiquitin-conjugating enzyme E2 N (Homo sapiens, UniProt P61088); type: functional;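 note: Dose-response confirmation in a TR-FRET assay detecting UBC13-driven polyubiquitin chain formation, inhibition measured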
# T1 sequence (P61088 whole entry): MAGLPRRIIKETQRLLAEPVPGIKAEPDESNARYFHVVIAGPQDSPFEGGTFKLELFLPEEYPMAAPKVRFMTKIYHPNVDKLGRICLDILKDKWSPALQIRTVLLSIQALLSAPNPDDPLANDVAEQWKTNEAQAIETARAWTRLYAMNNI
# Protein skinhead-1 = molecular target: T2, Protein skinhead-1 (Caenorhabditis elegans, UniProt P34707); type: functional
# T2 sequence (P34707 whole entry): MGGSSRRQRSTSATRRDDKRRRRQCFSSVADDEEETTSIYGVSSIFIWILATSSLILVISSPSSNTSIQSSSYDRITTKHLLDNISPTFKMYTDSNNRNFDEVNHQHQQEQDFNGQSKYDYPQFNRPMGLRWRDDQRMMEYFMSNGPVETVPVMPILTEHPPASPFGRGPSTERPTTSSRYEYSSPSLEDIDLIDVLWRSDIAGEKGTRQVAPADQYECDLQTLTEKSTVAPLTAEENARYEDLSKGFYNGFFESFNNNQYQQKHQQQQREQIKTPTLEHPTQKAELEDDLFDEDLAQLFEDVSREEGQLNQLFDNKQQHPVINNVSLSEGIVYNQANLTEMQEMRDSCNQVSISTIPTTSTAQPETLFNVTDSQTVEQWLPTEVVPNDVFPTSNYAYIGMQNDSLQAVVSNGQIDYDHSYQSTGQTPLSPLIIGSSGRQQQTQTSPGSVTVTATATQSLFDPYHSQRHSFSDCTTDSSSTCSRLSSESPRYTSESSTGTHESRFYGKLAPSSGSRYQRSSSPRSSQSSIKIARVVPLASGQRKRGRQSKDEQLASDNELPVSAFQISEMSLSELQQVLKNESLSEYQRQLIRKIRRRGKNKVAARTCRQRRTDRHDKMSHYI
# [2] = ZM109 Env clade C HIV-1 fusion inhibitors, dose response, HeLa effector, CEM target cells, luciferase, cherry-pick (AID 652058); type: functional, cell-based
# [3] = inhibitors of clade B AD8 Env fusion, dose response, cell-based, cherry-pick (AID 652062); type: functional;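 note: luciferase signal from cell-cell fusion driven by HIV-1 clade B AD8 Env; potency is for inhibitors of fusion seen as a drop in luminescence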
# [4] = Luminescence Cell-Based Dose Retest to Confirm Inhibitors of Cancer Stem Cells. [Related pubchem assays (depositor defined):AID2717, AID2721]; type: functional; conditions: Homo sapiens
# [5] = P. falciparum Dd2 growth inhibitors, dose response, SYBR Green, cherry-picked samples (AID 1159567); type: functional, cell-based
# [6] = molecular target: T3, Heat shock factor protein 1 (Mus musculus, UniProt P38532); assay: HSF1 potentiators in luciferase reporter cells, confirmation, cell-based, NIH3T3, luminescence, dose retest (AID 435004); type: functional;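 note: stress induced by proteasome inhibitor MG132 added 30 min after compound; luciferase reporter driven by HSF1 response element in NIH3T3 cells; actives raise luminescence as potentiators of the MG132 stress response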
# T3 sequence (P38532 whole entry): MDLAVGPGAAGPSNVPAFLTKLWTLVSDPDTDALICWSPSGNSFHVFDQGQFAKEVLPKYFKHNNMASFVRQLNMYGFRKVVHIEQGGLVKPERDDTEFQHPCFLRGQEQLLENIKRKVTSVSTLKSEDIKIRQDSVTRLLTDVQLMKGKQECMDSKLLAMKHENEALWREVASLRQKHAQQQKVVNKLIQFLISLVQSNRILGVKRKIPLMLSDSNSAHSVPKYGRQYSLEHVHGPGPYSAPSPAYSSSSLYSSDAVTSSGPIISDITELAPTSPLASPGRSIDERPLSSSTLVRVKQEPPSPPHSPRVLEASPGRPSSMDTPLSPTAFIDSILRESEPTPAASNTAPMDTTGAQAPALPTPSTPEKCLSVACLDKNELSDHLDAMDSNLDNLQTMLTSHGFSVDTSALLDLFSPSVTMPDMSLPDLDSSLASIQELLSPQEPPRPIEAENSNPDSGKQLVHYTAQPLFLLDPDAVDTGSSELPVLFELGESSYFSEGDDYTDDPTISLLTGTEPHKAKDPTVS
# [7] = Luminescence Cell-Based Dose Response HTS to Identify Activators of Luciferase Translation or Activity in H4 […] Cells. [Related pubchem assays: 1829 (Project Summary), 1814 (Primary HTS)]; type: functional
# H4 = assay: Luminescence Cell-Based Dose Response HTS to Identify Activators of 5'UTR Stem-Loop Driven Prion Protein mRNA Translation in H4 Neuroglioblastoma Cells. [Related pubchem assays: 1829 (Project Summary), 1814 (Primary HTS)]; type: functional; conditions: Homo sapiens
# [8] = HEp-2 cell cytotoxicity, dose response, cytotoxicity control for RSV inhibitor project, HTS (AID 2410); type: functional; conditions: human respiratory syncytial virus
# [9] = inhibitors of HIV Env-driven cell fusion, dose response, cherry-pick (AID 652057); type: functional, cell-based
# INS1 = assay: beta cell apoptosis inhibitors, cytokine rescue, dose response, luminescence, retest (AID 449756); type: functional, cell-based; conditions: Rattus norvegicus;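 note: cell death triggered by IL-1 beta plus TNF-alpha plus IFN-gamma mixture; protective hits raise ATP signal compared with cytokine alone wells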
# Cytochrome P450 2C19 = Cytochrome P450 2C19 (Homo sapiens, UniProt P33261); assay: Cytochrome panel assay with activity outcomes. Panel member name: p450-cyp2c19 Compounds with AC50 equal or less than 10 uM are considered active; type: functional; conditions: read-out: AC50
# Cytochrome P450 3A4 = Cytochrome P450 3A4 (Homo sapiens, UniProt P08684);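 note: CYP3A4 tested as one member of a cytochrome P450 panel screen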
# [10] = control 3'UTR Renilla luciferase suppression, dose response, counter-screen for Shn3 inhibitor project, cell-based, Clone20-Shn3RL, cherry-picked (AID 624133); type: functional
# [11] = Shn3 3'UTR reporter inhibitors, dose response, cell-based, Clone20 osteoblasts, firefly luciferase, cherry-picked (AID 624132); type: functional;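 note: firefly luciferase luminescence from reporter carrying the Shn3 3'UTR in osteoblasts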
# Fatty acid synthase [12] = molecular target: T4, Fatty acid synthase (Homo sapiens, UniProt P49327); assay: FAS thioesterase domain inhibitors, dose response, biochemical, kinetic fluorescence intensity (AID 624326); type: functional;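 note: rate of fluorescence rise from hydrolysis of a fluorogenic O-methyl fluorescein ester substrate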
# Fatty acid synthase [13] = molecular target: T4, Fatty acid synthase; assay: FAS thioesterase domain inhibitors, dose response, biochemical, endpoint fluorescence intensity, uHTS hits (AID 624327); type: functional;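 note: fluorescence from hydrolysis of an O-methyl fluorescein acyl ester substrate by the enzyme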
# T4 sequence (P49327 whole entry, the tested form may be a part): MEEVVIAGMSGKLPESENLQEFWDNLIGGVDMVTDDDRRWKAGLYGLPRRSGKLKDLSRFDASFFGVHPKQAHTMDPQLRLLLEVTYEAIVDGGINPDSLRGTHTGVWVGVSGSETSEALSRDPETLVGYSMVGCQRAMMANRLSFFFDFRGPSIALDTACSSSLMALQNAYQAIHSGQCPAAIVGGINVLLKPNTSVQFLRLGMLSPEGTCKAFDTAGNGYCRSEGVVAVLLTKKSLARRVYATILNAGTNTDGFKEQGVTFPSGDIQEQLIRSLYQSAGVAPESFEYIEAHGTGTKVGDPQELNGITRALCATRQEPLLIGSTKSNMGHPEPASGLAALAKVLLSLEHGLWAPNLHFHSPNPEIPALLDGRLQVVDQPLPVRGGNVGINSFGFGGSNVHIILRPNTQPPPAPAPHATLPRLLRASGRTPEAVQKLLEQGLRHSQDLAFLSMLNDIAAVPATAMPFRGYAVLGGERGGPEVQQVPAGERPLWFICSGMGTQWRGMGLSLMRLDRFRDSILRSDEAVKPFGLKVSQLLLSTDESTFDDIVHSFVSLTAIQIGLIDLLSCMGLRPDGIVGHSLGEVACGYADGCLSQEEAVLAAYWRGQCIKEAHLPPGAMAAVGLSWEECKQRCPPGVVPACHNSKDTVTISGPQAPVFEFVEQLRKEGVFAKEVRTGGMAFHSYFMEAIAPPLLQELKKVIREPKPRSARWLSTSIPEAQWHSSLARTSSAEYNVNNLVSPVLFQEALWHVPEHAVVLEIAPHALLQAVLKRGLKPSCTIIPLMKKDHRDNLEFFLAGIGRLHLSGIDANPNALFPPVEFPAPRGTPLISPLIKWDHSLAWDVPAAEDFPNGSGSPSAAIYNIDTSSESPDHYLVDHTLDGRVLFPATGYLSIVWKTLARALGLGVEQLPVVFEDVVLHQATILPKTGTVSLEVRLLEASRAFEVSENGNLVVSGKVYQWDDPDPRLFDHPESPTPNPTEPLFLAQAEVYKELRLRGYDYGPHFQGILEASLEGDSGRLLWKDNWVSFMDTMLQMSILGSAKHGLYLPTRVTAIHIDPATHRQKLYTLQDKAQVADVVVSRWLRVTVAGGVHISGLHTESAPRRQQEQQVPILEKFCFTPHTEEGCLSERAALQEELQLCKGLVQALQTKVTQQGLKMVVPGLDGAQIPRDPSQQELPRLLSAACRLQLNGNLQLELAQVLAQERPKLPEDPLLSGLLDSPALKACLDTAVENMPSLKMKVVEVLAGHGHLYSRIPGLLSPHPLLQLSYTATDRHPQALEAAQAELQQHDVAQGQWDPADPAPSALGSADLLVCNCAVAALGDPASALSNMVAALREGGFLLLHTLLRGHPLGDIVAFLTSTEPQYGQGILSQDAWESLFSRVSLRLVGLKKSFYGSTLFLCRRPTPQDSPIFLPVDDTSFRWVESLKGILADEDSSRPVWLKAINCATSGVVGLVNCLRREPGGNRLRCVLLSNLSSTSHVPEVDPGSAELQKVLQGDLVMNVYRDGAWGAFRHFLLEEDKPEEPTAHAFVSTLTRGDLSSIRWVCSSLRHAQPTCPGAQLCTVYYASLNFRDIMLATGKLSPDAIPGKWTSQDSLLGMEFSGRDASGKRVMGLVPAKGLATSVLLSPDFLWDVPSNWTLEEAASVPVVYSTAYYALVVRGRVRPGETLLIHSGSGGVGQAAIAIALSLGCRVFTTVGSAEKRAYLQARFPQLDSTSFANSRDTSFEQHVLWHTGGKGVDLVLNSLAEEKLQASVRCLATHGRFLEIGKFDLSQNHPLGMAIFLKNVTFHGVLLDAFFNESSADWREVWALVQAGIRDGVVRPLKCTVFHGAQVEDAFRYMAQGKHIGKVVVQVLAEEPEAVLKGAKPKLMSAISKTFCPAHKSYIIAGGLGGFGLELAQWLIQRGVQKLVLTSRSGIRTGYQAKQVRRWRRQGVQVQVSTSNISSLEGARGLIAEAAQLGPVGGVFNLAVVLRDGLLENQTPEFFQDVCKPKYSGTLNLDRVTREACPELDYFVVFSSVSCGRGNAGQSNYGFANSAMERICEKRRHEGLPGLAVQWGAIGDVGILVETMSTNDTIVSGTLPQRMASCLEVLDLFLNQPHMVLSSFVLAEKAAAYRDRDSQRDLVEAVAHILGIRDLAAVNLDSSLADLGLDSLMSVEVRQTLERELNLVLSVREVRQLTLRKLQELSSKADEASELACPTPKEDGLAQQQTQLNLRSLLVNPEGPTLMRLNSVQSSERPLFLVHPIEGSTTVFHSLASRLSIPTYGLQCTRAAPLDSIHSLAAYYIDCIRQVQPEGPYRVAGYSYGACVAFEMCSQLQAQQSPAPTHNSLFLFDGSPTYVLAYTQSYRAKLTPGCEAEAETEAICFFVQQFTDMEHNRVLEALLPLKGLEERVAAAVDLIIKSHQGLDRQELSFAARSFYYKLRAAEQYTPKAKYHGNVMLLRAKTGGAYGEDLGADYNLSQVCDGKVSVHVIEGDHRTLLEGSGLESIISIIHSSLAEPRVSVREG
# Chain of Cytochrome P450 3A4 (P08684 whole entry): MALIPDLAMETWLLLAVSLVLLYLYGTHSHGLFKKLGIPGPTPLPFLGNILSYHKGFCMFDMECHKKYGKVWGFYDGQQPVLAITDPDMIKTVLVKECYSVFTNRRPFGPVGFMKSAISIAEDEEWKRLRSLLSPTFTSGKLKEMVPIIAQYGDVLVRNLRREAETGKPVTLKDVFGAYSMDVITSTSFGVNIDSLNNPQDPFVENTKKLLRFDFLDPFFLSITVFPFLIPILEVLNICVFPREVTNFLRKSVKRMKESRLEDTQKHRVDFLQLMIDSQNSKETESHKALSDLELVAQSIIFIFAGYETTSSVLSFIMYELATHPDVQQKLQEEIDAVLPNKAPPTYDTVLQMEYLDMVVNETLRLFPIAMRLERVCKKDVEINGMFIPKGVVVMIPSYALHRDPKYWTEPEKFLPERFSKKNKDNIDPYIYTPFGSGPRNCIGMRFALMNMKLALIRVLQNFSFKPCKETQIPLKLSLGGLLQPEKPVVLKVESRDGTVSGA
# Chain of Cytochrome P450 2C19 (P33261 whole entry): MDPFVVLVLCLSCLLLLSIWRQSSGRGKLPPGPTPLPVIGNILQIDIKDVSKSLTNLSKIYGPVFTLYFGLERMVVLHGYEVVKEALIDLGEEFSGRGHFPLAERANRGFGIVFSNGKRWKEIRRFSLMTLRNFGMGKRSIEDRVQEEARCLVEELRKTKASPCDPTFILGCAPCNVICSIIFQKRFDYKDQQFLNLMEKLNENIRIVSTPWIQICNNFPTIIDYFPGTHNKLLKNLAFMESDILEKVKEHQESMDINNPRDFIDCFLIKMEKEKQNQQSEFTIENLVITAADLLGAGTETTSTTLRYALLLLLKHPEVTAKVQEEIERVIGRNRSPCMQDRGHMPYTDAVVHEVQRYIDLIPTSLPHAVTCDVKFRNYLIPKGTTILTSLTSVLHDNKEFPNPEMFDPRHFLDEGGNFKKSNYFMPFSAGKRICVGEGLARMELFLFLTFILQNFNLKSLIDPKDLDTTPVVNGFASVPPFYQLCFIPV
structure (smiles),measurement,setting,value
NC1=NC[C@@H](Cc2ccc(O)cc2)N1CCc1cc(C(F)(F)F)cc(C(F)(F)F)c1,IC50,[1],> 20 µM (inactive)
O=c1c2ccccc2ccc2ccccc12,IC50,Protein skinhead-1,21.3 µM (active)
Cc1cccc(C)c1NC(=O)N1CCN(c2nc3ccccc3s2)CC1,AC50,[2],1.05 µM (active)
same,AC50,[3],10 µM (active)
CC(=O)Nc1cccc(OCC(=O)NS(=O)(=O)c2ccc(Cl)cc2)c1,IC50,Protein skinhead-1,> 100 µM (inactive)
COc1ccccc1-c1oc2ccccc2c1C#CC1(N)CCCCC1,IC50,[1],> 20 µM (inactive)
same,AC50,[4],5.52 µM (active)
COc1ccc(-c2cc(-c3cccs3)nc(OC)c2C#N)cc1OC,IC50,[1],> 20 µM (inactive)
CCCN(C)C[C@H]1Oc2ncc(C#Cc3ccccc3OC)cc2C(=O)N([C@H](C)CO)C[C@H]1C,AC50,[5],3.28 µM (active)
CCCNC(=O)N1[C@H](CO)[C@H](c2ccc(-c3ccc(C#N)cc3)cc2)[C@@H]1CNC,AC50,[5],11.5 µM (active)
[O-][S+](Cc1cc(Sc2ccccc2)nc(-c2ccccc2)n1)c1ccccc1 (centres undefined),EC50,[6],> 260 µM (inactive)
COc1ccc2cc(N3CCCC3=O)ccc2c1,IC50,Protein skinhead-1,> 100 µM (inactive)
O=C(C1CC(c2ccc(F)cc2)=NO1)N1CCCCC1 (centres undefined),EC50,[7],5.56 µM (active)
same,EC50,H4,33.4 µM (active)
O=C(CSc1nnc(COc2ccc(Cl)cc2)o1)NC1CC2CCC1C2 (centres undefined),IC50,Protein skinhead-1,> 100 µM (inactive)
CCCCOC(=O)c1ccc(NC(=O)CN2C(=O)NC3(CCCCCC3)C2=O)cc1,CC50,[8],31.9 µM (active)
Nc1cc(-c2nc3ncccc3o2)ccc1Cl,EC50,[7],4.25 µM (active)
same,EC50,H4,> 120 µM (not active)
CO[C@@H]1CN(C)C(=O)c2ccc(NC(=O)c3ccc(F)cc3)cc2OC[C@@H](C)N(C(=O)c2ccc(F)cc2)C[C@@H]1C,AC50,[5],4.29 µM (active)
c1ccc2c(C[C@@H]3CNCCN3CCC34CC5CC(CC(C5)C3)C4)cccc2c1,IC50,[1],> 20 µM (inactive)
Nc1c2c(nc3ccc(Br)cc13)N(Cc1ccccc1)CC2,CC50,[8],9.17 µM (active)
C=C1CCC[C@]2(C)C[C@H]3OC(=O)C(CNCCN(C)C)[C@H]3CC12 (some centres undefined),IC50,Protein skinhead-1,> 100 µM (inactive)
C[C@H](CO)N1C[C@H](C)[C@H](CN(C)S(=O)(=O)c2cccs2)Oc2ccc(NC(=O)Nc3ccccc3)cc2CC1=O,AC50,[2],0.579 µM (active)
same,AC50,[3],1.34 µM (active)
same,AC50,[9],0.395 µM (active)
COc1ccc(C(CCN2CCCC2)c2c(OC)cc(OC)c3c(-c4ccccc4)cc(=O)oc23)cc1 (centres undefined),IC50,[1],> 20 µM (inactive)
Cc1ccc(CSc2nnc(-c3ccco3)o2)cc1,IC50,Protein skinhead-1,22 µM (active)
Cc1ccc(C2CC(c3cccc(Br)c3)n3nc(N)nc3N2)cc1 (centres undefined),AC50,INS1,34.1 µM (active)
COc1ccc(-c2[nH]ncc2CN2CCN(C3CCCCC3)C(=O)C2)cc1F,EC50,[6],216 µM (active)
COC(=O)[C@H](CCSC)NC(=O)Nc1cccc(C)c1C,EC50,[6],> 260 µM (inactive)
O=C(Nc1ccc(Br)cc1)c1ccc(CSC2=NCCS2)cc1,AC50,Cytochrome P450 2C19,11.2 µM (inconclusive)
same,EC50,[7],3.81 µM (active)
same,AC50,Cytochrome P450 3A4,3.55 µM (inconclusive)
same,EC50,H4,99.7 µM (active)
C=CCN1C(=O)C2(C(C(=O)OCC)=C(N)Oc3ccccc32)C2=C1CCCC2=O (centres undefined),IC50,Protein skinhead-1,> 100 µM (inactive)
CO[C@H]1CN(C)C(=O)c2ccc(NC(=O)C3CCC3)cc2OC[C@H](C)N(CC2CCCCC2)C[C@@H]1C,AC50,[2],1.25 µM (active)
same,AC50,[3],1.83 µM (active)
same,AC50,[9],0.592 µM (active)
O=C(CCN1CCCCCC1)Nc1ccccc1F,IC50,Protein skinhead-1,> 100 µM (inactive)
CCc1ccc(NC2=NC(=O)/C(=C/c3cc(OC)c(OC)c(OC)c3)S2)cc1,CC50,[8],21.2 µM (active)
Cc1cc(N2CCOCC2)nc2ccc(NC(=O)C3CCC(C)CC3)cc12 (centres undefined),IC50,Protein skinhead-1,> 100 µM (inactive)
C/C=C/c1ccc2c(c1)[C@H]1[C@H](CCN1S(=O)(=O)c1cccc(F)c1)[C@@H](CO)N2,AC50,[5],4.13 µM (active)
O=C(CCc1nc(O)c2ccccc2n1)NCCN1C(=O)S/C(=C\c2ccccc2Cl)C1=O,CC50,[8],23.9 µM (active)
CC(=O)C1=C(C)NC(SCC(=O)c2ccc(Cl)cc2)=C(C#N)C1CC(C)C (centres undefined),CC50,[8],23.4 µM (active)
Cc1sc2ncnc(N3CCN(S(=O)(=O)c4ccccc4)CC3)c2c1C,AC50,[10],3.43 µM (active)
same,AC50,INS1,4.3 µM (active)
same,AC50,[11],2.3 µM (active)
O=C(Nc1ccc(Nc2ccccc2)cc1)c1cc([N+](=O)[O-])ccc1Cl,AC50,[4],9.07 µM (active)
same,EC50,[6],5.63 µM (active)
same,IC50,Fatty acid synthase [12],14 µM (active)
same,IC50,Fatty acid synthase [13],11.1 µM (active)
O=C(c1ccccc1F)N1C[C@H]2[C@@H](c3ccccc31)[C@@H](CO)N2C(=O)c1ccc(F)cc1,AC50,[5],35.2 µM (active)
CC(=O)c1ccc(NC(S)=NCc2cccnc2)cc1,AC50,INS1,5.94 µM (active)
Cc1ccc(S(=O)(=O)N=C(N)Nc2nc(C)c3ccc(C)cc3n2)cc1,CC50,[8],> 50 µM (active)
